Assay [1] deals with T1, hACC1 (Homo sapiens, UniProt Q13085).
T1 construct: PCR primers were designed for full-length hACC1 and hACC2 using GenBank submissions AY237919 and AJ575592, respectively; His tag (C); made in house; host or cells: baculovirus, Sf9 insect cells
Nature of the assay: [14C]bicarbonate incorporation assay, overall ACC activity. Type of assay: biochemical. The following applies: recombinant hACC1, overall ACC activity. As for the experimental part:
(§1) In vitro IC50 values of human ACC were determined using recombinant enzyme produced by standard procedures. For example, full-length cDNAs for both the human isoforms (hACC1 and hACC2) were each cloned and expressed as a recombinant protein using a baculovirus system. Double stranded cDNA from human fetal liver (Quick-Clone cDNA, cat. #7171-1) was purchased from BD/Clontech (Mt. View, Calif.). PCR primers were designed for full-length hACC1 and hACC2 using GenBank submissions AY237919 and AJ575592, respectively. The Advantage GC 2 PCR kit (BD/Clontech) was used for amplification. The PCR products (about 7 Kb) were TOPO-cloned into the pCR4Blunt vector (Invitrogen, Carlsbad, Calif.), and 6 clones of each gene were isolated. […] Full length versions of the two cDNAs corresponding to their respective Genbank sequences were assembled in pBluescript SK+ (Stratagene, La Jolla, Calif.) by combining error-free fragments from the PCR clones. The resulting hACC1 clone, designated pCS35, has six silent nucleotide differences compared to Genbank accession AY237919. The final hACC2 clone, designated pCS36, has ten silent nucleotide differences compared to Genbank accession AJ575592. Primers were designed to PCR amplify the cDNAs along with the in-frame 3′-his tag sequences from the pET vector and TOPO-cloned the resulting products into the Gateway® entry vector pENTR/D-TOPO. The ACC2 primers were designed to delete amino acids 1-148 and add Met-Gly in front of Lys149 in the final product. The resulting entry clones were transferred to BaculoDirect™ linear DNA (Invitrogen corp.) using the Gateway® LR recombination reaction. The recombinant baculovirus DNA was transfected into insect cells and viral amplification was performed according to the manufacturer's protocols. For protein expression sf9 cells were infected with a P3 viral stock in the presence of 50 uM biotin. The cells were harvested after 48-72 hr, lysed by sonication, and the resulting extract was clarified by centrifugation. ACC in the crude extract was concentrated by ammonium sulfate precipitation (40% w/v) and purified by Ni^2+-NTA chromatography (Novagen) followed by anion exchange chromatography on a UNO-Q column (BioRad).
(§2) Overall ACC activity in the hACC preparations is measured by following incorporation of [^14C]bicarbonate into […] essentially as described (Thumpy and Wakil, J Biol Chem 260, 6318-6323 (1985). Briefly, the reaction mixture (50 μL) contains: 50 mM Hepes (pH7.4), 20 mM K-Citrate, 20 mM Mg-Acetate 1.5 mM MgSO4, 2 mM DTT, 2 mM acetyl-CoA, 12 mM NaHCO3, 0.2 mM NaH^14CO3 (˜50 mCi/mmol), 0.01% (v/v) Triton X-100, 0.75 mg/mL BSA, 1% (v/v) DMSO (with or without inhibitor), and 0.3 μg (hACC1) or 0.15 μg (hACC2) enzyme. Reactions are initiated by the addition of ATP to a final concentration 2 mM. After 10 minutes at 37° C., the reaction is stopped by the addition of 2N HCl (50 μL). The samples are evaporated in a hood overnight, resuspended in H2O (200 μL), and incorporated label is quantified by scintillation counting in scintillation cocktail (3 mL). Inhibition data are fit to dose-response curves and IC50 values are reported (i.e. the concentration of inhibitor that gives 50% inhibition).

Assay [2] deals with T2, hACC2 (Homo sapiens, UniProt O00763).
T2 construct: delete amino acids 1-148 and add Met-Gly in front of Lys149 in the final product; His tag (C); made in house; host or cells: baculovirus, Sf9 insect cells
Described as above. Type of assay: biochemical. The following applies: recombinant hACC2, overall ACC activity. As for the experimental part: as §1, §2

Structures are written as SMILES.

T2 sequence (O00763 149-2458 limits assumed): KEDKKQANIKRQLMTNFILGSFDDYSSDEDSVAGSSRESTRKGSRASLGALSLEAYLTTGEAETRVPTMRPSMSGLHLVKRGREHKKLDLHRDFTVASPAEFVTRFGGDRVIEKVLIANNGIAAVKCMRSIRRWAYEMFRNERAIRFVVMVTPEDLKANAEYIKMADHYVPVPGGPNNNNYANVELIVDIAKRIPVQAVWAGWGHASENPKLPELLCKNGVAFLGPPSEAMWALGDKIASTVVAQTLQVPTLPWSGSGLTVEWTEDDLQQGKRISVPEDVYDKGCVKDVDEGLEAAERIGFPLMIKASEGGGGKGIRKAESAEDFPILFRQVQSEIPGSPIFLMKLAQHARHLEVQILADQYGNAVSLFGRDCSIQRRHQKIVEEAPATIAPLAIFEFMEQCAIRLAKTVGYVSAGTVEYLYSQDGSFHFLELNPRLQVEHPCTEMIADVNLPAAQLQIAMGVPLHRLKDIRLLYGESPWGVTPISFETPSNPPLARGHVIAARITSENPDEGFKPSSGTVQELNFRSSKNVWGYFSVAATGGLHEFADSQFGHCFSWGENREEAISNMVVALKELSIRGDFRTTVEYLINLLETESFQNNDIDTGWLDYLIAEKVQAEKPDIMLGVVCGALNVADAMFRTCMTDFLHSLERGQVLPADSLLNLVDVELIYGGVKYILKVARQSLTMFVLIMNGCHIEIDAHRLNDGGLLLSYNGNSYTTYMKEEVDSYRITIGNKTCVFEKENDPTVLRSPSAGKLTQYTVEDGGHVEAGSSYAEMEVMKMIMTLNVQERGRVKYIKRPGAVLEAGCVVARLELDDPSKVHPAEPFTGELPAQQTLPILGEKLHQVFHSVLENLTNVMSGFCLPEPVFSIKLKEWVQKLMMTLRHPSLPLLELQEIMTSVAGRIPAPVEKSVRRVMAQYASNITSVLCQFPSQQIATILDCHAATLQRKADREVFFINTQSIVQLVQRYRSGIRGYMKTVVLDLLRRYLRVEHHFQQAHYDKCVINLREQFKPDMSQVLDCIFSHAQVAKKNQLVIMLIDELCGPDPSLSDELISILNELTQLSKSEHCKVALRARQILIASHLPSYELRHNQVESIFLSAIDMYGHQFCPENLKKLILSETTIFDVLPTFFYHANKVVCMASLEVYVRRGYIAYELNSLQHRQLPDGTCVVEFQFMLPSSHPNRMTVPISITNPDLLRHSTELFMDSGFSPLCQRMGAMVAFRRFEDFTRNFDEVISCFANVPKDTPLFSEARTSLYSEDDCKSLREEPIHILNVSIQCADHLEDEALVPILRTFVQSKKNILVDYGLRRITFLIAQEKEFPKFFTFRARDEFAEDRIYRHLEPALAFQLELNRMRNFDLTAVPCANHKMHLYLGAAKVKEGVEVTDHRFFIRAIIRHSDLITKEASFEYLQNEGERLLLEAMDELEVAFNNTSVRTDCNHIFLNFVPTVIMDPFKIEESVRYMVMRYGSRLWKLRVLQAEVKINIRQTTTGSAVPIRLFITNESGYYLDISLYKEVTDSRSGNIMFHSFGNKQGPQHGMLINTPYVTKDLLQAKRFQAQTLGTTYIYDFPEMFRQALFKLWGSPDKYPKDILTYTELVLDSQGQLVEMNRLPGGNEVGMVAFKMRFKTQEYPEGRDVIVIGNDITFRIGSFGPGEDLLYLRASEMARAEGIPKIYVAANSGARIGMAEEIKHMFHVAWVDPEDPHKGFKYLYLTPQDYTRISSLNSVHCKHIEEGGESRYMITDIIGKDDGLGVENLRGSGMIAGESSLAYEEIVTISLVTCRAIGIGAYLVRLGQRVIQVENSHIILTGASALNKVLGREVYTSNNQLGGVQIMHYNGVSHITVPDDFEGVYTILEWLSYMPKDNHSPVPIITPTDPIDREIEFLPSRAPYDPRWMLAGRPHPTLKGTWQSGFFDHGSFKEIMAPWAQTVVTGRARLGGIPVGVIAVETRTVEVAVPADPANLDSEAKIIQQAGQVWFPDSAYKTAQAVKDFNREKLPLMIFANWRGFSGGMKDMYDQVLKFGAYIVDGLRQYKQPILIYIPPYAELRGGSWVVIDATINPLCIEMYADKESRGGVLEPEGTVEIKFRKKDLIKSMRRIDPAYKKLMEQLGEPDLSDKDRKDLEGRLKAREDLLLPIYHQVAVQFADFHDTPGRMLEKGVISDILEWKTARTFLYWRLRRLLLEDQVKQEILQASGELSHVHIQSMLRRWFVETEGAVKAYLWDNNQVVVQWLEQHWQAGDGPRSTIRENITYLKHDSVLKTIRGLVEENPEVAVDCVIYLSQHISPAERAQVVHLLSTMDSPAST

As a reminder, the IC50 is the concentration that gives 50% inhibition. On to `COc1cc(C(=O)N2CCC3(CC2)NC(=O)c2cc(Br)ccc2O3)nc2c(C3CC3)cccc12` [Compound 32], for which the concentration for half-maximal inhibition (IC50) in assay [1] came to 180 nM; in assay [2] it was 110 nM. `COc1cc(C(=O)N2CCC3(CC2)NC(=O)c2cc(OC(C)C)ccc2O3)cc2[nH]ncc12` [Compound 230]: the half-inhibitory concentration (IC50) in assay [1] was determined as 110 nM; in assay [2] it was 85 nM. With `COc1cc(C(=O)N2CCC3(CC2)NC(=O)c2cc(Br)ccc2O3)nc2c(SC)cccc12` [Compound 133], the 50% inhibitory concentration (IC50) amounted to 140 nM in assay [1] and 110 nM in assay [2]. For `COc1cc(C(=O)N2CCC3(CC2)NC(=O)c2cc(-c4nnn[nH]4)ccc2O3)nc2c(OC)cccc12` [Compound 10], in that order: 16 nM and 11 nM. Take `COc1cc(C(=O)N2CCC3(CC2)NC(=O)c2cc(OC(F)(F)F)ccc2O3)cc2c(OC)cccc12` [Compound 173]: in assay [1], the IC50 came out at 6 nM. For `COc1ccc(OC)c2[nH]c(C(=O)N3CCC4(CC3)NC(=O)c3cc(NC(C)=O)ccc3O4)cc12` [Compound 17], the IC50 in assay [1] is 260 nM; in assay [2] it was 310 nM. In the case of `COc1cc(C(=O)N2CCC3(CC2)NC(=O)c2cc(C(C)C)ccc2O3)cc2c(OC)cccc12` [Compound 178], in assay [1], the IC50 was found to be 14 nM. As to `COc1cc(C(=O)N2CCC3(CC2)NC(=O)c2cc(NC(C)=O)ccc2O3)nc2c(OC)cccc12` [Compound 9], the half-inhibitory concentration (IC50) in assay [1] came out at 92 nM; in assay [2], 56 nM. Take `COc1cc(C(=O)N2CCC3(CC2)NC(=O)c2cc(C)c(C)cc2O3)nc2c(SC)cccc12` [Compound 154]: the IC50 is 30 nM in assay [1] and 27 nM in assay [2]. The like results for `COc1cccc2ccc(C(=O)N3CCC4(CC3)NC(=O)c3cc(Br)ccc3O4)nc12` [Compound 44] were, in that order, 740 nM and 490 nM. Consider `COc1cc(C(=O)N2CCC3(CC2)NC(=O)c2cc(N4CCOCC4)ccc2O3)cc2c(OC)cccc12` [Compound 197], for which, in assay [1], the IC50 was 4 nM. As for `COc1cc2c(OC)cccc2cc1C(=O)N1CCC2(CC1)NC(=O)c1cc(NC(C)=O)ccc1O2` [Compound 132, 6-Acetamido-1′-[(3,5-dimethoxynaphth-2-yl)carbonyl]spiro[2H-1,3-benzoxazin-2,4′-piperidin]-4-(3H)-one], the IC50 was 800 nM in assay [1] and 300 nM in assay [2]. Consider `COc1cc(C(=O)N2CCC3(CC2)NC(=O)c2cc(Br)ccc2N3)nc2c(C(C)C)cccc12` [Compound 91], for which the IC50 in assay [1] stood at 2000 nM; in assay [2], 3700 nM. On to `COc1cccc2c(C)c(C(=O)N3CCC4(CC3)NC(=O)c3cc(N)ccc3O4)[nH]c12` [Compound 183], for which the IC50 in assay [1] amounted to 430 nM. For the molecule `COc1cc(C(=O)N2CCC3(CC2)NC(=O)c2cc(Br)ccc2O3)c(OC)c2ccccc12` [Compound 135, 6-Bromo-1′-[(1,4-dimethoxynaphth-2-yl)carbonyl]spiro[2H-1,3-benzoxazin-2,4′-piperidin]-4-(3H)-one], the 50% inhibitory concentration (IC50) in assay [1] was found to be 2200 nM.

As for `COc1cc2c(OC)cccc2cc1C(=O)N1CCC2(CC1)Oc1ccc(Br)cc1C(=O)N2C` [Compound 138, 6-Bromo-1′-[(3,5-dimethoxynaphth-2-yl)carbonyl]-3-methylspiro[2H-1,3-benzoxazin-2,4′-piperidin]-4-(3H)-one], the concentration for half-maximal inhibition (IC50) in assay [1] was found to be 1200 nM; in assay [2], 880 nM. With `COc1ccc2c(c1)C(=O)NC1(CCN(C(=O)c3cc4c(OC)ccc(OC)c4[nH]3)CC1)O2` [Compound 182], the half-inhibitory concentration (IC50) in assay [1] stood at 160 nM.

On to `COc1cc(C(=O)N2CCC3(CC2)NC(=O)c2cc(C(C)C)ccc2O3)cc2c(SC)cccc12` [Compound 179], for which, in assay [1], the half-maximal inhibitory concentration (IC50) is 38 nM. As for `COc1cc(C(=O)N2CCC3(CC2)NC(=O)c2cc(OC(C)C)ccc2O3)cc2c(OC)cccc12` [Compound 170], the IC50 in assay [1] was 6 nM.

Regarding `COc1cc2c(OC)cccc2cc1C(=O)N1CCC2(CC1)NC(=O)c1cc(Cl)ccc1O2` [Compound 131, 6-Chloro-1′-[(3,5-dimethoxynaphth-2-yl)carbonyl]spiro[2H-1,3-benzoxazin-2,4′-piperidin]-4-(3H)-one], the half-inhibitory concentration (IC50) in assay [1] is 1900 nM; in assay [2], 450 nM. On to `COc1ccc(OC)c2[nH]c(C(=O)N3CCC4(CC3)NC(=O)c3cc(Br)ccc3O4)cc12` [Compound 16], for which the IC50 in assay [1] was found to be 260 nM; in assay [2] it was 200 nM. The like results for `COc1ccc(OC)c2c1cc(C(=O)N1CCC3(CC1)NC(=O)c1cc(Br)ccc1O3)n2C` [Compound 26] were, in that order, 830 nM and 590 nM. In the case of `CCOc1ccc2c(c1)C(=O)NC1(CCN(C(=O)c3cc(OC)c4cccc(SC)c4c3)CC1)O2` [Compound 176], the concentration for half-maximal inhibition (IC50) in assay [1] turned out to be 5 nM. Take `COc1ccc2c(c1)C(=O)NC1(CCN(C(=O)c3cc(OC)c4cccc(SC)c4c3)CC1)O2` [Compound 177]: the half-inhibitory concentration (IC50) in assay [1] stood at 5 nM. For `COc1ccc2c(c1)C(=O)NC1(CCN(C(=O)c3[nH]c4c(OC)cccc4c3C)CC1)N2` [Compound 189, 6′-Methoxy-1-[[7-methoxy-3-methyl-1H-indol-2-yl)carbonyl]spiro-[piperidine-4,2′(1′H)-quinazolin]-4′-(3′H)-one], the half-maximal inhibitory concentration (IC50) in assay [1] worked out at 500 nM.

For the molecule `COc1ccc2cc3c(cc2c1)C(=O)NC1(CCN(C(=O)c2cc(OC)c4cccc(OC)c4c2)CC1)O3` [Compound 162], the concentration for half-maximal inhibition (IC50) in assay [1] stood at 5 nM. The same measure, in the same setting: in the case of `COc1cc(C(=O)N2CCC3(CC2)NC(=O)c2cc(Br)ccc2O3)nc2c(C(C)C)cccc12` [Compound 134] it was 4700 nM.

For `Cn1nccc1-c1cccc(C(=O)N2CCC3(CC2)NC(=O)c2cc(Br)ccc2O3)c1` [Compound 141, 6-Bromo-1′-[3-(1-methyl-1H-pyrazol-5-yl)benzoyl]spiro[2H-1,3-benzoxazin-2,4′-piperidin]-4-(3H)-one], the concentration for half-maximal inhibition (IC50) in assay [2] is 1300 nM. For `COc1cc(C(=O)N2CCC3(CC2)NC(=O)c2cc(OC(F)(F)F)ccc2O3)cc2c(SC)cccc12` [Compound 175], the half-maximal inhibitory concentration (IC50) in assay [1] worked out at 21 nM. For `COc1cc2c(cc1OC)C(=O)NC1(CCN(C(=O)c3cc(OC)c4cccc(OC)c4n3)CC1)N2` [Compound 191], the IC50 in assay [1] turned out to be 190 nM. Consider `COc1cc(C(=O)N2CCC3(CC2)NC(=O)c2cc(C)ccc2N3)cc2c(OC)cccc12` [Compound 192], for which, in assay [1], the IC50 worked out at 160 nM. Still for that read-out and setting: in the case of `COc1cc(C(=O)N2CCC3(CC2)NC(=O)c2cc(OC(F)(F)F)ccc2N3)nc2c(OC)cccc12` [Compound 195] it was 500 nM; in that of `COc1ccc2c(c1)C(=O)NC1(CCN(C(=O)c3cc4c(OC)ccc(OC)c4n3C)CC1)O2` [Compound 181], 420 nM.

For `COc1cc(C(=O)N2CCC3(CC2)NC(=O)c2cc(Br)ccc2O3)nc2ccccc12` [Compound 40], the half-maximal inhibitory concentration (IC50) in assay [2] turned out to be 900 nM. Consider `COc1cc(C(=O)N2CCC3(CC2)NC(=O)c2cc(OC(F)(F)F)ccc2N3)cc2c(OC)cccc12` [Compound 194], for which the IC50 in assay [1] was 70 nM. The same measure, in the same setting: in the case of `COc1cccc2c(C)c(C(=O)N3CCC4(CC3)NC(=O)c3cc5ccccc5cc3O4)[nH]c12` [Compound 161, 1′-[[7-Methoxy-3-methyl-1H-indol-2-yl)carbonyl]spiro[2H-naphtho[2,3-e]-1,3-oxazin-2,4′-piperidin]-4-(3H)-one] it was 8 nM. `COc1cc2c(cc1OC)C(=O)NC1(CCN(C(=O)c3cc(OC)c4cccc(OC)c4c3)CC1)N2` [Compound 190]: the half-inhibitory concentration (IC50) in assay [1] was 62 nM. Take `COc1cc(C(=O)N2CCC3(CC2)NC(=O)c2cc4ccccc4cc2O3)nc2c(SC)cccc12` [Compound 158]: the IC50 in assay [2] came to 8 nM.

Source of the values: patent publication US8110570B2, “Modulators of acetyl-coenzyme A carboxylase and methods of use thereof” (Cropsolution, Inc., priority 2008, dated 2012).
